{"source": "patent US20230035892A1", "about": "“METHODS AND COMPOSITIONS FOR TREATING CANCER” (Flagship Pioneering Innovations V, Inc., priority 2019, published 2023)", "assay_type_in_all_cases": "cell-based", "key": {"[1]": {"test_system": "sgGrk2-expressing Miapaca2 cells", "experiment": "Colony formation assay in sgGrk2-expressing cells (target specificity)", "settings": "Miapaca", "description": "(§1) To assess the target specificity of the GRK2 small molecule antagonist of Formula III-26, sgGRK2-expressing cells were treated with the compound of Formula III-26. If GRK2 knockout is complete and the compound of Formula III-26 inhibits only GRK2, the addition of the compound of Formula III-26 should not induce any additional growth defect compared to sgRNA KO alone. […] This is potentially due to the lower GRK2 knockout efficiency that can be achieved in PAXF1657 compared to Miapaca2, as shown in Table 16."}, "[2]": {"test_system": "sgGrk2-expressing PAXF1657 cells", "experiment": "Colony formation assay in sgGrk2-expressing cells (target specificity)", "description": "as §1"}, "[3]": {"test_system": "pancreatic cancer cell lines", "experiment": "Long-term colony formation assay (10-14 days)", "settings": "colony formation 10-14 days", "excerpt": "Different concentrations of the compound of Formula III-26 were then used to evaluate its effect on pancreatic cancer cell line proliferation in a long-term colony formation assay (10-14 days)."}, "[4]": {"settings": "PAXF1657, 1 μM, sgGRK2-2 (SEQ ID NO: 3)"}, "[5]": {"settings": "PAXF1657, 1 μM, sgGRK2-3 (SEQ ID NO: 4)"}, "[6]": {"settings": "PAXF1657, 3 μM, sgGRK2-2 (SEQ ID NO: 3)"}, "[7]": {"settings": "PAXF1657, 3 μM, sgGRK2-3 (SEQ ID NO: 4)"}}, "data": [{"compound": "Cn1c(CNc2cccc(C(=O)NCc3ccccc3C(F)(F)F)c2)nnc1-c1ccncc1", "note": "[Compound of Formula III-26]", "values": [{"measurement": "Difference between rel +dox and −dox signal", "setting": "[1]; 1 μM, sgGRK2-pooled", "value": 0.00}, {"measurement": "Rel +dox", "setting": "[1]; 1 μM, sgGRK2-pooled", "value": 0.76}, {"measurement": "Rel −dox", "setting": "[1]; 1 μM, sgGRK2-pooled", "value": 0.75}, {"measurement": "Difference between rel +dox and −dox signal", "setting": "[1]; 1 μM, sgNTC", "value": 0.05}, {"measurement": "Rel +dox", "setting": "[1]; 1 μM, sgNTC", "value": 0.77}, {"measurement": "Rel −dox", "setting": "[1]; 1 μM, sgNTC", "value": 0.81}, {"measurement": "Difference between rel +dox and −dox signal", "setting": "[1]; 3 μM, sgGRK2-pooled", "value": 0.04}, {"measurement": "Rel +dox", "setting": "[1]; 3 μM, sgGRK2-pooled", "value": 0.43}, {"measurement": "Rel −dox", "setting": "[1]; 3 μM, sgGRK2-pooled", "value": 0.47}, {"measurement": "Difference between rel +dox and −dox signal", "setting": "[1]; 3 μM, sgNTC", "value": 0.12}, {"measurement": "Rel +dox", "setting": "[1]; 3 μM, sgNTC", "value": 0.53}, {"measurement": "Rel −dox", "setting": "[1]; 3 μM, sgNTC", "value": 0.65}, {"measurement": "Difference between rel +dox and −dox signal", "setting": "[2]; [4]", "value": 0.45}, {"measurement": "Rel +dox", "setting": "[2]; [4]", "value": 0.44}, {"measurement": "Rel −dox", "setting": "[2]; [4]", "value": 0.89}, {"measurement": "Difference between rel +dox and −dox signal", "setting": "[2]; [5]", "value": 0.37}, {"measurement": "Rel +dox", "setting": "[2]; [5]", "value": 0.40}, {"measurement": "Rel −dox", "setting": "[2]; [5]", "value": 0.78}, {"measurement": "Difference between rel +dox and −dox signal", "setting": "[2]; PAXF1657, 1 μM, sgGRK2-pooled", "value": 0.29}, {"measurement": "Rel +dox", "setting": "[2]; PAXF1657, 1 μM, sgGRK2-pooled", "value": 0.49}, {"measurement": "Rel −dox", "setting": "[2]; PAXF1657, 1 μM, sgGRK2-pooled", "value": 0.78}, {"measurement": "Difference between rel +dox and −dox signal", "setting": "[2]; PAXF1657, 1 μM, sgNTC", "value": "−0.04"}, {"measurement": "Rel +dox", "setting": "[2]; PAXF1657, 1 μM, sgNTC", "value": 0.78}, {"measurement": "Rel −dox", "setting": "[2]; PAXF1657, 1 μM, sgNTC", "value": 0.73}, {"measurement": "Difference between rel +dox and −dox signal", "setting": "[2]; [6]", "value": 0.26}, {"measurement": "Rel +dox", "setting": "[2]; [6]", "value": 0.41}, {"measurement": "Rel −dox", "setting": "[2]; [6]", "value": 0.67}, {"measurement": "Difference between rel +dox and −dox signal", "setting": "[2]; [7]", "value": 0.32}, {"measurement": "Rel +dox", "setting": "[2]; [7]", "value": 0.22}, {"measurement": "Rel −dox", "setting": "[2]; [7]", "value": 0.55}, {"measurement": "Difference between rel +dox and −dox signal", "setting": "[2]; PAXF1657, 3 μM, sgGRK2-pooled", "value": 0.11}, {"measurement": "Rel +dox", "setting": "[2]; PAXF1657, 3 μM, sgGRK2-pooled", "value": 0.48}, {"measurement": "Rel −dox", "setting": "[2]; PAXF1657, 3 μM, sgGRK2-pooled", "value": 0.59}, {"measurement": "Difference between rel +dox and −dox signal", "setting": "[2]; PAXF1657, 3 μM, sgNTC", "value": 0.01}, {"measurement": "Rel +dox", "setting": "[2]; PAXF1657, 3 μM, sgNTC", "value": 0.56}, {"measurement": "Rel −dox", "setting": "[2]; PAXF1657, 3 μM, sgNTC", "value": 0.57}, {"measurement": "Mean intensity", "setting": "[3]; BXPC3, 0.1 μM", "value": 396.24}, {"measurement": "Normalized to DMSO", "setting": "[3]; BXPC3, 0.1 μM", "value": 0.99}, {"measurement": "Mean intensity", "setting": "[3]; BXPC3, 0.3 μM", "value": 445.015}, {"measurement": "Normalized to DMSO", "setting": "[3]; BXPC3, 0.3 μM", "value": 1.11}, {"measurement": "Mean intensity", "setting": "[3]; BXPC3, 1 μM", "value": 418.98}, {"measurement": "Normalized to DMSO", "setting": "[3]; BXPC3, 1 μM", "value": 1.04}, {"measurement": "Mean intensity", "setting": "[3]; BXPC3, 3 μM", "value": 189.24}, {"measurement": "Normalized to DMSO", "setting": "[3]; BXPC3, 3 μM", "value": 0.47}, {"measurement": "Mean intensity", "setting": "[3]; BXPC3, 10 μM", "value": 82.2}, {"measurement": "Normalized to DMSO", "setting": "[3]; BXPC3, 10 μM", "value": 0.20}, {"measurement": "Mean intensity", "setting": "[3]; BXPC3, 30 μM", "value": 76.19}, {"measurement": "Normalized to DMSO", "setting": "[3]; BXPC3, 30 μM", "value": 0.19}, {"measurement": "Mean intensity", "setting": "[3]; Miapaca, 0.1 μM", "value": 447.5}, {"measurement": "Normalized to DMSO", "setting": "[3]; Miapaca, 0.1 μM", "value": 1.09}, {"measurement": "Mean intensity", "setting": "[3]; Miapaca, 0.3 μM", "value": 461.465}, {"measurement": "Normalized to DMSO", "setting": "[3]; Miapaca, 0.3 μM", "value": 1.13}, {"measurement": "Mean intensity", "setting": "[3]; Miapaca, 1 μM", "value": 398.675}, {"measurement": "Normalized to DMSO", "setting": "[3]; Miapaca, 1 μM", "value": 0.97}, {"measurement": "Mean intensity", "setting": "[3]; Miapaca, 3 μM", "value": 386.35}, {"measurement": "Normalized to DMSO", "setting": "[3]; Miapaca, 3 μM", "value": 0.94}, {"measurement": "Mean intensity", "setting": "[3]; Miapaca, 10 μM", "value": 80.16}, {"measurement": "Normalized to DMSO", "setting": "[3]; Miapaca, 10 μM", "value": 0.20}, {"measurement": "Mean intensity", "setting": "[3]; Miapaca, 30 μM", "value": 75.66}, {"measurement": "Normalized to DMSO", "setting": "[3]; Miapaca, 30 μM", "value": 0.18}, {"measurement": "Mean intensity", "setting": "[3]; PAXF1657, 0.1 μM", "value": 617.13}, {"measurement": "Normalized to DMSO", "setting": "[3]; PAXF1657, 0.1 μM", "value": 0.97}, {"measurement": "Mean intensity", "setting": "[3]; PAXF1657, 0.3 μM", "value": 660.9}, {"measurement": "Normalized to DMSO", "setting": "[3]; PAXF1657, 0.3 μM", "value": 1.04}, {"measurement": "Mean intensity", "setting": "[3]; PAXF1657, 1 μM", "value": 574.375}, {"measurement": "Normalized to DMSO", "setting": "[3]; PAXF1657, 1 μM", "value": 0.90}, {"measurement": "Mean intensity", "setting": "[3]; PAXF1657, 3 μM", "value": 410.77}, {"measurement": "Normalized to DMSO", "setting": "[3]; PAXF1657, 3 μM", "value": 0.64}, {"measurement": "Mean intensity", "setting": "[3]; PAXF1657, 10 μM", "value": 326.68}, {"measurement": "Normalized to DMSO", "setting": "[3]; PAXF1657, 10 μM", "value": 0.51}, {"measurement": "Mean intensity", "setting": "[3]; PAXF1657, 30 μM", "value": 271.275}, {"measurement": "Normalized to DMSO", "setting": "[3]; PAXF1657, 30 μM", "value": 0.43}, {"measurement": "Mean intensity", "setting": "[3]; PAXF1997, 0.1 μM", "value": 461.65}, {"measurement": "Normalized to DMSO", "setting": "[3]; PAXF1997, 0.1 μM", "value": 1.07}, {"measurement": "Mean intensity", "setting": "[3]; PAXF1997, 0.3 μM", "value": 500.34}, {"measurement": "Normalized to DMSO", "setting": "[3]; PAXF1997, 0.3 μM", "value": 1.16}, {"measurement": "Mean intensity", "setting": "[3]; PAXF1997, 1 μM", "value": 455.7}, {"measurement": "Normalized to DMSO", "setting": "[3]; PAXF1997, 1 μM", "value": 1.06}, {"measurement": "Mean intensity", "setting": "[3]; PAXF1997, 3 μM", "value": 379.285}, {"measurement": "Normalized to DMSO", "setting": "[3]; PAXF1997, 3 μM", "value": 0.88}, {"measurement": "Mean intensity", "setting": "[3]; PAXF1997, 10 μM", "value": 296.635}, {"measurement": "Normalized to DMSO", "setting": "[3]; PAXF1997, 10 μM", "value": 0.69}, {"measurement": "Mean intensity", "setting": "[3]; PAXF1997, 30 μM", "value": 288.38}, {"measurement": "Normalized to DMSO", "setting": "[3]; PAXF1997, 30 μM", "value": 0.67}, {"measurement": "Mean intensity", "setting": "[3]; Panc1, 0.1 μM", "value": 477.265}, {"measurement": "Normalized to DMSO", "setting": "[3]; Panc1, 0.1 μM", "value": 1.16}, {"measurement": "Mean intensity", "setting": "[3]; Panc1, 0.3 μM", "value": 478.195}, {"measurement": "Normalized to DMSO", "setting": "[3]; Panc1, 0.3 μM", "value": 1.17}, {"measurement": "Mean intensity", "setting": "[3]; Panc1, 1 μM", "value": 509.365}, {"measurement": "Normalized to DMSO", "setting": "[3]; Panc1, 1 μM", "value": 1.24}, {"measurement": "Mean intensity", "setting": "[3]; Panc1, 3 μM", "value": 504.735}, {"measurement": "Normalized to DMSO", "setting": "[3]; Panc1, 3 μM", "value": 1.23}, {"measurement": "Mean intensity", "setting": "[3]; Panc1, 10 μM", "value": 254.47}, {"measurement": "Normalized to DMSO", "setting": "[3]; Panc1, 10 μM", "value": 0.62}, {"measurement": "Mean intensity", "setting": "[3]; Panc1, 30 μM", "value": 181.7}, {"measurement": "Normalized to DMSO", "setting": "[3]; Panc1, 30 μM", "value": 0.44}]}]}
